Source: publication PMC3433414, “Oral Administration of the Pimelic Diphenylamide HDAC Inhibitor HDACi 4b Is Unsuitable for Chronic Inhibition of HDAC Activity in the CNS In Vivo” (PLoS ONE, 2012)

Legend:
HDAC5 = molecular target: T1, HDAC5 (Homo sapiens, UniProt Q9UQL6); experiment: Two-step fluorogenic deacetylase assay, recombinant HDAC5; format: biochemical; conditions: up to 50 µM
T1 construct: HDAC5 (αα 657–1123; cat # 50005); purchased BPS Bioscience (San Diego, CA) 50005
Source text: (§1) To assess the biochemical and cellular potency of 4b and its conversion products/metabolites, we utilized the two-step fluorogenic assay which measures the HDAC-mediated catalytic conversion of synthetic acetylated lysine substrates. In brief, on deacetylation of the substrates by HDAC activity, a protease site is unmasked which allows subsequent trypsin-mediated cleavage and release of the highly flourescent AMC molecules in a subsequent step of the assay. The substrates used were Lys_Ac_AMC (Bachem I-1875) for HDAC3 and (Ac)Arg-Gly-Lys(Ac) (Bachem I-1925) for HDAC1 and HDAC2. […] However, the relatively labile and sterically more demanding trifluoracetyl group is readily hydrolyzed by the catalytically less avid Class IIa enzymes, allowing measurement of Class IIa activity using the 2-step fluorogenic assay. […]
(§2) For evaluation of the class selectivity of the compounds, we assessed inhibition against purified recombinant human full length HDAC1 (cat# 50051), HDAC2 (cat# 50052), HDAC3-NcoR2 (cat# 50003) and HDAC8 (cat# 50008): as representative of Class I activity; catalytic domain HDAC4(αα 648–1057), HDAC5 (αα 657–1123; cat # 50005), HDAC7 (αα 518-end; cat # 50007) and HDAC9 (αα 604–1066; cat # 50009) activity: representing all Class IIa activity; and full length HDAC6 (cat#50006): representing Class IIb activity. […]

HDAC6 = molecular target: T2, HDAC6 (Homo sapiens, UniProt Q9UBN7); experiment: Two-step fluorogenic deacetylase assay, recombinant HDAC6; format: biochemical; conditions: up to 50 µM
T2 construct: full length HDAC6 (cat#50006); purchased BPS Bioscience (San Diego, CA) 50006
T2 sequence (Q9UBN7 whole entry): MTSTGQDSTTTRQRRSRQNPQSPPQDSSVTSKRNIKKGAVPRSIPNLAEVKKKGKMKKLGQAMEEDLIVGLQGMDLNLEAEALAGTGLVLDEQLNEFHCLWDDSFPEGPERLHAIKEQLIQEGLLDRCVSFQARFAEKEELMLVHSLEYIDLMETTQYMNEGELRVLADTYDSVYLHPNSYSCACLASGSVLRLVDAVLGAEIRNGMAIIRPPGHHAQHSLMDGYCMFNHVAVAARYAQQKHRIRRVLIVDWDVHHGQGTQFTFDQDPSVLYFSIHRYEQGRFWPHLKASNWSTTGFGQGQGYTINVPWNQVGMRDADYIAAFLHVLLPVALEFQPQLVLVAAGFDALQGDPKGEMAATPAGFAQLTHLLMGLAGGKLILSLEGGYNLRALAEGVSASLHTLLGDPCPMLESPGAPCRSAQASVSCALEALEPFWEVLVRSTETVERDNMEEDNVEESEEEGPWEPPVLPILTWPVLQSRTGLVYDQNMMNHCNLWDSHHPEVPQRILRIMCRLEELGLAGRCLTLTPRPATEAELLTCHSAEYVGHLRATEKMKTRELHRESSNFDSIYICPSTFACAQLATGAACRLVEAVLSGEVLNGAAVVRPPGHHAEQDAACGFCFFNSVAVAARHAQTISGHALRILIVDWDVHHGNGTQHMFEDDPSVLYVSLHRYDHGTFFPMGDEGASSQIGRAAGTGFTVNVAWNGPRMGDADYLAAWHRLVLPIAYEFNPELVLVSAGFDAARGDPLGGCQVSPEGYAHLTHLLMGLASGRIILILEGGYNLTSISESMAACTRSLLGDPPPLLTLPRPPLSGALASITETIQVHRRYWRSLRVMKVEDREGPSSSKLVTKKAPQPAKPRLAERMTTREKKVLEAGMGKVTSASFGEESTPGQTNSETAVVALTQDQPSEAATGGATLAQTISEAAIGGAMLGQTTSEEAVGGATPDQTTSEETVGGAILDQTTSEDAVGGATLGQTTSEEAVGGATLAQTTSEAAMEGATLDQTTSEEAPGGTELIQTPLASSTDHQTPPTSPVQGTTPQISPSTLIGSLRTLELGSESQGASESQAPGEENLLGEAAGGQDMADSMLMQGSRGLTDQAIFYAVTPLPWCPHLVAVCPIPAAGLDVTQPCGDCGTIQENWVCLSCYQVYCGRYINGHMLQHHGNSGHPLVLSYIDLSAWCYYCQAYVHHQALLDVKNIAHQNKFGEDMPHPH
Source text: as §1, §2

[1] = system: diversity panel of 72 binding and 29 enzyme assays; experiment: Cerep Diversity Profile, overall; conditions: 10 µM, duplicate
Source text: In addition to the HDAC profiling performed, we also queried 4b for any apparent potential off-target effects, which could complicate any finding of efficacy or adverse events in vivo due to ‘polypharmacy’. This was accomplished by screening against a ‘diversity panel’ of 72 binding and 29 enzyme assays, comprised of roughly equal numbers of selective central and peripheral therapeutically relevant targets (Cerep Diversity Profile). This panel included representative targets from diverse enzyme families, G protein coupled receptors, steroid nuclear receptors, voltage- and ligand-gated ion channels. While not totally inclusive, it is a useful tool for discovery compounds to assess their viability as proof of concept molecules to specifically query a particular target. 4b was initially screened at 10 µM in duplicate. The full set of results is provided as Table S1. […] This clean in vitro profile was considered acceptable to proceed to ADME and pharmacokinetic studies.

[2] = Permeability and efflux in Caco2 monolayers; format: in vitro ADME; conditions: human
Procedure: Caco-2 cells (obtained from ECACC) were used after a 21-day cell culture period in 24-well Transwell plates (seeding density of 2×10^5 cells/well). Test compounds (10 µM) were dissolved in Hanks’ Balanced Salt Solution (HBSS) containing 25 mM HEPES (pH 7.4) and added to either the apical or basolateral chambers of a Transwell plate assembly. Duplicate wells were prepared per assay condition. Lucifer Yellow was added to the apical buffer in all wells to assess integrity of the cell layers by monitoring Lucifer Yellow permeation. As Lucifer Yellow (LY) cannot freely permeate lipophilic barriers, a high degree of LY transport indicates poor integrity of the cell layer.
After 1 hr incubation at 37°C, aliquots were taken from the acceptor chamber of each Transwell and added to acetonitrile containing analytical internal standard (carbamazepine) in a 96 well plate. Concentrations of test compound in the samples were measured by high performance liquid-chromatography/mass spectroscopy (LC-MS/MS).
Apparent permeability (Papp) values were calculated from the relationship: [drawing 4] […]
Acceptor = Chamber of Transwell in to which permeation of compound is measured: basal for A>B experiments and apical for B>A experiments.
The Efflux ratios, as an indication of active efflux from the apical cell surface, were calculated using the ratio of Papp B>A/Papp A>B.

T1 sequence (Q9UQL6 656-1122): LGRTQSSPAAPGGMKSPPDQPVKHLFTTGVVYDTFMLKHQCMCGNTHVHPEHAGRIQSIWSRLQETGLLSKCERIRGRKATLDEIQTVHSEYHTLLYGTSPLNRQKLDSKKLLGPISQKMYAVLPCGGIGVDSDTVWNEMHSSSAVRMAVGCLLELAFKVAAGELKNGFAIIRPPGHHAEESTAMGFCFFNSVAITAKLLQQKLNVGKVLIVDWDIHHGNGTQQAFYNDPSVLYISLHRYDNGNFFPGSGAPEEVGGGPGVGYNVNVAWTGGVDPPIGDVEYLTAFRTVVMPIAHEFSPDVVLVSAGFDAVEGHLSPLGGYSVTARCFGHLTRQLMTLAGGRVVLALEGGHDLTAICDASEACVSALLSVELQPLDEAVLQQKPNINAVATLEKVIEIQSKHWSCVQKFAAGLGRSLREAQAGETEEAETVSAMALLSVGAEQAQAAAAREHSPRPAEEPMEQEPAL

Nc1ccccc1NC(=O)CCCCCC(=O)Nc1ccccc1 [Compound 4b]
activity against HDAC5 (HDAC5): No activity | activity against HDAC6 (HDAC6): No activity | off-target profile in the Cerep Diversity Profile [1]: clean | Papp A→B at 1 h, 10 µM ([2]; Caco-2, pH 7.4): 15.6 ×10⁻⁶ cm/s | efflux ratio at 1 h, 10 µM ([2]; Caco-2, pH 7.4, read-out: effective efflux ratio): 3.5
